Reference: PMC4960549, “Structure-Activity Analysis of Gram-positive Bacterium-producing Lasso Peptides with Anti-mycobacterial Activity” (Scientific Reports, 2016)
Positions of bridges follow the written chain, without caps; N, C: chain ends. No end group written: not given here.

Tested on: M. smegmatis 607
Assay: Anti-mycobacterial activity by paper disk method
Format: cell-based, Mycobacterium smegmatis
Settings: for Inhibition zone: paper disk (6 mm) containing 1 μg peptide on Middlebrook 7H9 agar spread with M. smegmatis 607 (approx. 1.5 × 10^8 CFU/ml), 37 °C, 48 hr, diameter of inhibitory zone, average from two independent experiments, '-' = no zone (activity lost); for Anti-mycobacterial activity compared with lariatin A (in words): M. smegmatis, paper disk method, 1 μg per disk
Experimental: To gain insights into the structure-activity relationships of lariatin A, anti-mycobacterial activity of 20 lariatin variants against M. smegmatis was evaluated by paper disk method (Fig. 4). Among lariatin variants related to the macrolactam ring, the anti-mycobacterial activity of Tyr6 variant only was lost, while the replacement of Tyr6 with tryptophan and phenylalanine didn’t affect the anti-mycobacterial activity. […] Furthermore, Gly11 and Asn14 were closely involved in the anti-mycobacterial activity because of the loss of the activity in their variants. […] Thus, it was shown that the positively charged amino acid residue was favorable at the residue at position 17. Also, it was shown that the amino acid residue without bulky or branched side chains at the residues at positions 15, 16 and 18 contributed to the higher potency.
Figure 4 Anti-mycobacterial activity of lariatin variants. Anti-mycobacterial activities of lariatin variants were evaluated by a paper disk method. Value of the inhibition zone against M. smegmatis and relative activity in comparison with lariatin A were shown here. Bar color represents potency of each compound when the value of inhibition zone of lariatin A is set up at 100%: yellow, <50% activity; green, 50–120% activity; blue, >120% activity. Value of inhibition zone represents the average from two independent experiments. TEXT PRINTED IN THE PICTURE: Lariatin A: Inhibition zone (mm): 21.8 | S2A: Inhibition zone (mm): 20.4 | Q3A: Inhibition zone (mm): 16.3 | L4A: Inhibition zone (mm): 8.9 | V5A: Inhibition zone (mm): 11.3 | Y6A: Inhibition zone (mm): - | V10A: Inhibition zone (mm): 7.6 | G11A: Inhibition zone (mm): - | H12A: Inhibition zone (mm): 12.7 | S13A: Inhibition zone (mm): 19.8 | N14A: Inhibition zone (mm): - | V15A: Inhibition zone (mm): 20.7 | I16A: Inhibition zone (mm): 24.0 | K17A: Inhibition zone (mm): 10.4 | P18A: Inhibition zone (mm): 29.6 | V15A/I16A: Inhibition zone (mm): 29.3 | Y6F: Inhibition zone (mm): 30.7 | Y6W: Inhibition zone (mm): 22.8 | R7K: Inhibition zone (mm): 26.5 | W9Y: Inhibition zone (mm): 14.9 | K17R: Inhibition zone (mm): 31.1
Antimicrobial activity of lariatins against M. smegmatis 607 was measured by a paper disk method. The cell suspension of M. smegmatis 607 was adjusted to approximately 1.5 × 10^8 CFU ml^−1 in a Middlebrook 7H9 broth (Difco, Becton Dickinson, Sparks, MD, USA) containing 0.05% Tween 80 and 10% ADC enrichment (5.0% bovine albumin fraction V, 2.0% dextrose and catalase (30 μg/ml)), and were spread on a Middlebrook 7H9 agar plate. A paper disk (6 ϕ mm, Advantec Toyo Kaisha, Ltd. Tokyo, Japan) containing 1 μg lariatin variants was placed on the agar plate and was incubated at 37 °C for 48 hr. A diameter (mm) of the inhibitory zone observed around the paper disk was measured to evaluate the anti-mycobacterial activity.

Substance	Inhibition zone [mm]	Anti-mycobacterial activity compared with lariatin A (in words)
H12A: lariatin A variant, alanine substitution at position 12 (GSQLVYREWVGASNVIKP; lactam N-8 (inferred); not fully specified; ends not checked; UniProt H7C8I3 27-44, looked up, variant H12A)	12.7	–
K17A: lariatin A variant, alanine substitution at position 17 (GSQLVYREWVGHSNVIAP; lactam N-8 (inferred); not fully specified; ends not checked; UniProt H7C8I3 27-44, looked up, variant K17A)	10.4	weaker activity
Lariatin A (GSQLVYREWVGHSNVIKP; lactam N-8 (inferred); ends not checked; UniProt H7C8I3 27-44, looked up) [18-residue lasso peptide from Rhodococcus jostii K01-B0171, macrolactam ring between Gly1 and Glu8, C-terminal tail threaded through ring]	21.8	–
P18A: lariatin A variant, alanine substitution at position 18 (GSQLVYREWVGHSNVIKA; lactam N-8 (inferred); not fully specified; ends not checked; UniProt H7C8I3 27-44, looked up, variant P18A)	29.6	more potent activity than lariatin A
S13A: lariatin A variant, alanine substitution at position 13 (GSQLVYREWVGHANVIKP; lactam N-8 (inferred); not fully specified; ends not checked; UniProt H7C8I3 27-44, looked up, variant S13A)	19.8	–
V15A: lariatin A variant, alanine substitution at position 15 (GSQLVYREWVGHSNAIKP; lactam N-8 (inferred); not fully specified; ends not checked; UniProt H7C8I3 27-44, looked up, variant V15A)	20.7	–
Y6F: lariatin A variant, Tyr6 replaced with phenylalanine (GSQLVFREWVGHSNVIKP; lactam N-8 (inferred); ends not checked; UniProt H7C8I3 27-44, looked up, variant Y6F)	30.7	–
